Experimental data from patent US20040063662A1, “Selenophene anti-tumor agents” (priority 1996, published 2004).

Key:
RXF-393 = assay: NCI human tumor cell panel: RXF-393 (Renal Cancer); type: cell-based; settings: RXF-393, Renal Cancer; for GI50: read-out: Log10 GI50 (converted); for IC (TGI): read-out: Log10 TGI (converted)
NCI-H226 = assay: NCI human tumor cell panel: NCI-H226 (Non-Small Cell Lung Cancer); type: cell-based; settings: NCI-H226, Non-Small Cell Lung Cancer; for GI50: read-out: Log10 GI50 (converted); for IC (TGI): read-out: Log10 TGI (converted)
BT-549 = assay: NCI human tumor cell panel: BT-549 (Breast Cancer); type: cell-based; settings: BT-549, Breast Cancer; for GI50: read-out: Log10 GI50 (converted); for IC (TGI): read-out: Log10 TGI (converted)
KM12 = assay: NCI human tumor cell panel: KM12 (Colon Cancer); type: cell-based; settings: KM12, Colon Cancer; for GI50: read-out: Log10 GI50 (converted); for IC (TGI): read-out: Log10 TGI (converted)
OVCAR-5 = assay: NCI human tumor cell panel: OVCAR-5 (Ovarian Cancer); type: cell-based; settings: OVCAR-5, Ovarian Cancer; for GI50: read-out: Log10 GI50 (converted); for IC (TGI): read-out: Log10 TGI (converted)
LOX IMVI = assay: NCI human tumor cell panel: LOX IMVI (Melanoma); type: cell-based; settings: Melanoma; for GI50: read-out: Log10 GI50 (converted); for IC (TGI): read-out: Log10 TGI (converted)
SK-OV-3 = assay: NCI human tumor cell panel: SK-OV-3 (Ovarian Cancer); type: cell-based; settings: SK-OV-3, Ovarian Cancer; for GI50: read-out: Log10 GI50 (converted); for IC (TGI): read-out: Log10 TGI (converted)
HL-60(TB) = assay: NCI human tumor cell panel: HL-60(TB) (Leukemia); type: cell-based; settings: Leukemia; for GI50: read-out: Log10 GI50 (converted); for IC (TGI): read-out: Log10 TGI
DU-145 = assay: NCI human tumor cell panel: DU-145 (Prostate Cancer); type: cell-based; settings: DU-145, Prostate Cancer; for GI50: read-out: Log10 GI50 (converted); for IC (TGI): read-out: Log10 TGI (converted)
T-47D = assay: NCI human tumor cell panel: T-47D (Breast Cancer); type: cell-based; settings: T47D, Breast Cancer; for GI50: read-out: Log10 GI50 (converted); for IC (TGI): read-out: Log10 TGI (converted)
SW-620 = assay: NCI human tumor cell panel: SW-620 (Colon Cancer); type: cell-based; settings: SW-620, Colon Cancer; for IC (TGI): read-out: Log10 TGI (converted)
UO-31 = assay: NCI human tumor cell panel: UO-31 (Renal Cancer); type: cell-based; settings: UO-31, Renal Cancer; for GI50: read-out: Log10 GI50 (converted); for IC (TGI): read-out: Log10 TGI (converted)
SF-268 = assay: NCI human tumor cell panel: SF-268 (CNS Cancer); type: cell-based; settings: SF-268, CNS Cancer; for GI50: read-out: Log10 GI50 (converted); for IC (TGI): read-out: Log10 TGI (converted)
NCI-H522 = assay: NCI human tumor cell panel: NCI-H522 (Non-Small Cell Lung Cancer); settings: for GI50: NCI-H522, read-out: Log10 GI50 (converted); for IC (TGI): NCI-H522, read-out: Log10 TGI
SNB-75 = assay: NCI human tumor cell panel: SNB-75 (CNS Cancer); type: cell-based; settings: SNB-75, CNS Cancer; for GI50: read-out: Log10 GI50 (converted)
MDA-MB-231/ATCC = assay: NCI human tumor cell panel: MDA-MB-231/ATCC (Breast Cancer); type: cell-based; settings: Homo sapiens, MDA-MB-231, MDA-MB-231/ATCC, Breast Cancer
HCC-2998 = assay: NCI human tumor cell panel: HCC-2998 (Colon Cancer); type: cell-based; settings: HCC-2998, Colon Cancer; for GI50: read-out: Log10 GI50 (converted)
K-562 = assay: NCI human tumor cell panel: K-562 (Leukemia); type: cell-based; settings: K562, K-562, Leukemia; for GI50: read-out: Log10 GI50 (converted); for IC (TGI): read-out: Log10 TGI (converted)
IGROV1 = assay: NCI human tumor cell panel: IGROV1 (Ovarian Cancer); type: cell-based; settings: IGROV-1, IGROV1, Ovarian Cancer; for GI50: read-out: Log10 GI50 (converted); for IC (TGI): read-out: Log10 TGI (converted)
[1] = system: panel of sixty different human tumor cell lines; assay: NCI human tumor cell panel: whole panel (mean graph summary); settings: for GI50 / CC50: Homo sapiens; for GI50: read-out: Log10 GI50, cell line not given (converted); for CC50: read-out: Log10 LC50, cell line not given (converted); for Log10 TGI: cell line not given
786-0 = assay: NCI human tumor cell panel: 786-0 (Renal Cancer); type: cell-based; settings: 786-0, Renal Cancer; for GI50: read-out: Log10 GI50 (converted); for IC (TGI): read-out: Log10 TGI (converted)
OVCAR-8 = assay: NCI human tumor cell panel: OVCAR-8 (Ovarian Cancer); type: cell-based; settings: OVCAR-8, Ovarian Cancer; for GI50: read-out: Log10 GI50 (converted); for IC (TGI): read-out: Log10 TGI (converted)
HCT-15 = assay: NCI human tumor cell panel: HCT-15 (Colon Cancer); type: cell-based; settings: HCT-15, Colon Cancer; for GI50: read-out: Log10 GI50 (converted)
RPMI-8226 = assay: NCI human tumor cell panel: RPMI-8226 (Leukemia); type: cell-based; settings: RPMI-8226, Leukemia; for GI50: read-out: Log10 GI50 (converted); for IC (TGI): read-out: Log10 TGI
SN12C = assay: NCI human tumor cell panel: SN12C (Renal Cancer); type: cell-based; settings: Renal Cancer; for GI50: read-out: Log10 GI50 (converted); for IC (TGI): read-out: Log10 TGI (converted)
EKVX = assay: NCI human tumor cell panel: EKVX (Non-Small Cell Lung Cancer); type: cell-based; settings: Non-Small Cell Lung Cancer; for GI50: read-out: Log10 GI50 (converted); for IC (TGI): read-out: Log10 TGI (converted)
SK-MEL-2 = assay: NCI human tumor cell panel: SK-MEL-2 (Melanoma); type: cell-based; settings: SK-MEL-2, Melanoma; for GI50: read-out: Log10 GI50 (converted); for IC (TGI): read-out: Log10 TGI (converted)
COLO 205 = assay: NCI human tumor cell panel: COLO 205 (Colon Cancer); type: cell-based; settings: COLO 205, Colon Cancer
[2] = read-out: Log10 GI50 (converted)
[3] = read-out: Log10 TGI (converted)

OCc1ccc(-c2ccc(-c3cccs3)[se]2)s1 [NSC 675344]
GI50 (RXF-393): 15.8 µM | IC (TGI) (RXF-393): 52.5 µM | GI50 (NCI-H226): < 0.01 µM | IC (TGI) (NCI-H226): < 0.01 µM | GI50 (BT-549): 42.7 µM | IC (TGI) (BT-549): > 100 µM | GI50 (KM12): > 100 µM | IC (TGI) (KM12): > 100 µM | GI50 (OVCAR-5): < 0.01 µM | IC (TGI) (OVCAR-5): 0.0871 µM | GI50 (LOX IMVI): 34.7 µM | IC (TGI) (LOX IMVI): > 100 µM | GI50 (SK-OV-3): 16.6 µM | IC (TGI) (SK-OV-3): > 100 µM | GI50 (HL-60(TB)): > 100 µM | IC (TGI) (HL-60(TB)): > 100 µM | GI50 (DU-145): 36.3 µM | IC (TGI) (DU-145): > 100 µM | GI50 (T-47D): 0.617 µM | IC (TGI) (T-47D): > 100 µM | GI50 (SW-620; [2]): > 100 µM | IC (TGI) (SW-620): > 100 µM | GI50 (UO-31): > 100 µM | IC (TGI) (UO-31): > 100 µM | GI50 (SF-268): 23.4 µM | IC (TGI) (SF-268): > 100 µM | GI50 (NCI-H522): > 100 µM | IC (TGI) (NCI-H522): > 100 µM | GI50 (SNB-75): 16.6 µM | IC (TGI) (SNB-75; [3]): 49 µM | GI50 (MDA-MB-231/ATCC; [2]): 19.1 µM | IC (TGI) (MDA-MB-231/ATCC; [3]): > 100 µM | GI50 (HCC-2998): 0.257 µM | IC (TGI) (HCC-2998; [3]): 1.62 µM | GI50 (K-562): 0.0437 µM | IC (TGI) (K-562): > 100 µM | GI50 (IGROV1): 0.0123 µM | IC (TGI) (IGROV1): 0.0427 µM | GI50 [1]: 0.0871 µM | CC50 [1]: > 100 µM | Log10 TGI [1]: >−4.00 | GI50 (786-0): 12.3 µM | IC (TGI) (786-0): 67.6 µM | GI50 (OVCAR-8): > 100 µM | IC (TGI) (OVCAR-8): > 100 µM | GI50 (HCT-15): 0.0257 µM | GI50 (RPMI-8226): > 100 µM | IC (TGI) (RPMI-8226): > 100 µM | GI50 (SN12C): > 100 µM | IC (TGI) (SN12C): > 100 µM | GI50 (EKVX): > 100 µM | IC (TGI) (EKVX): > 100 µM | GI50 (SK-MEL-2): > 100 µM | IC (TGI) (SK-MEL-2): > 100 µM

O=Cc1ccc(-c2ccc(-c3cccs3)[se]2)s1 [NSC 675346]
GI50 (RXF-393): 16.2 µM | IC (TGI) (RXF-393): 42.7 µM | GI50 (NCI-H226): 0.0174 µM | IC (TGI) (NCI-H226): 0.12 µM | GI50 (BT-549): ≥ 100 µM | IC (TGI) (BT-549): > 100 µM | GI50 (KM12): 32.4 µM | IC (TGI) (KM12): > 100 µM | GI50 (OVCAR-5): 0.0447 µM | IC (TGI) (OVCAR-5): 0.575 µM | GI50 (LOX IMVI): 19.5 µM | IC (TGI) (LOX IMVI): > 100 µM | GI50 (COLO 205; [2]): 4.79 µM | IC (TGI) (COLO 205; [3]): > 100 µM | GI50 (SK-OV-3): 12.6 µM | IC (TGI) (SK-OV-3): > 100 µM | GI50 (HL-60(TB)): > 100 µM | IC (TGI) (HL-60(TB)): > 100 µM | GI50 (DU-145): 28.8 µM | IC (TGI) (DU-145): > 100 µM | GI50 (T-47D): 18.2 µM | IC (TGI) (T-47D): 40.7 µM | IC (TGI) (SW-620): > 100 µM | GI50 (UO-31): 35.5 µM | IC (TGI) (UO-31): > 100 µM | GI50 (SF-268): 19.1 µM | IC (TGI) (SF-268): > 100 µM | GI50 (NCI-H522): 33.1 µM | IC (TGI) (NCI-H522): > 100 µM | GI50 (SNB-75): 13.8 µM | GI50 (HCC-2998): 0.234 µM | GI50 (K-562): 2.29 µM | IC (TGI) (K-562): > 100 µM | GI50 (IGROV1): 0.162 µM | IC (TGI) (IGROV1): 0.562 µM | GI50 [1]: 1.7 µM | CC50 [1]: > 100 µM | Log10 TGI [1]: >−4.00 | GI50 (786-0): 13.5 µM | IC (TGI) (786-0): > 100 µM | GI50 (OVCAR-8): 4.47 µM | IC (TGI) (OVCAR-8): > 100 µM | GI50 (HCT-15): 18.6 µM | IC (TGI) (HCT-15; [3]): > 100 µM | GI50 (RPMI-8226): > 100 µM | IC (TGI) (RPMI-8226): > 100 µM | GI50 (SN12C): > 100 µM | IC (TGI) (SN12C): > 100 µM | GI50 (EKVX): 77.6 µM | IC (TGI) (EKVX): > 100 µM | GI50 (SK-MEL-2): 24.5 µM | IC (TGI) (SK-MEL-2): > 100 µM
